# Tested on: 266295-075-R-J1-PDC spheroid viability
# Experiment: Anticancer human tumor 266295-075-R-J1-PDC patient-derived head and neck squamous carcinoma cell line growth inhibition [POLQ]
# Details: spheroids with HUVEC and MSC; for IC50: curve of first compound; for viability, T/C: stronger effect = lower value
# How it was run: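 Patient-derived tumour cells were co-cultured with HUVEC and mesenchymal stem cells as multicellular spheroids at 37 °C. They were treated with POLQ inhibitors (novobiocin, ART-558, RP6685) alone or combined with other agents. Top concentrations were at or near clinical Cmax (otherwise 10 microM; SN-38 at 1 microM), decreasing in half-log steps.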
# [1] = second compound 0.0316 µM, first compound 0.0316 µM
# [2] = second compound 0.0316 µM, first compound 0.1 µM
# [3] = second compound 0.0316 µM, first compound 0.316 µM
# [4] = second compound 0.0316 µM, first compound 1 µM
# [5] = second compound 0.0316 µM, first compound 3.16 µM
# [6] = second compound 0.0316 µM, first compound 10 µM
# [7] = second compound 0.1 µM, first compound 0.0316 µM
# [8] = second compound 0.1 µM, first compound 0.1 µM
# [9] = second compound 0.1 µM, first compound 0.316 µM
# [10] = second compound 0.1 µM, first compound 1 µM
# [11] = second compound 0.1 µM, first compound 3.16 µM
# [12] = second compound 0.1 µM, first compound 10 µM
# [13] = second compound 0.316 µM, first compound 0.0316 µM
# [14] = second compound 0.316 µM, first compound 0.1 µM
# [15] = second compound 0.316 µM, first compound 0.316 µM
# [16] = second compound 0.316 µM, first compound 1 µM
# [17] = second compound 0.316 µM, first compound 3.16 µM
# [18] = second compound 0.316 µM, first compound 10 µM
# [19] = second compound 1 µM, first compound 0.0316 µM
# [20] = second compound 1 µM, first compound 0.1 µM
# [21] = second compound 1 µM, first compound 0.316 µM
# [22] = second compound 1 µM, first compound 1 µM
# [23] = second compound 1 µM, first compound 3.16 µM
# [24] = second compound 1 µM, first compound 10 µM
# [25] = second compound 3.16 µM, first compound 0.0316 µM
# [26] = second compound 3.16 µM, first compound 0.1 µM
# [27] = second compound 3.16 µM, first compound 0.316 µM
# [28] = second compound 3.16 µM, first compound 1 µM
# [29] = second compound 3.16 µM, first compound 3.16 µM
# [30] = second compound 3.16 µM, first compound 10 µM
# [31] = second compound 10 µM, first compound 0.0316 µM
# [32] = second compound 10 µM, first compound 0.1 µM
# [33] = second compound 10 µM, first compound 0.316 µM
# [34] = second compound 10 µM, first compound 1 µM
# [35] = second compound 10 µM, first compound 3.16 µM
# [36] = second compound 10 µM, first compound 10 µM
# 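Note: spheroids exposed to compounds for seven days before readout.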
smiles,measurement,setting,value
CCc1cc2c(N3CCc4c(cc(Cn5ccnc5)cc4-c4cn(C)nc4C(F)(F)F)C3=O)cc(C)nc2c(OC)n1 + Nc1ccc(C#CCN(C(=O)Cc2ncc(C(F)(F)F)cc2C(F)(F)F)c2ccc(F)cc2)nn1,IC50,second compound 0.0316 µM,> 10 µM
same,IC50,second compound 0.1 µM,> 10 µM
same,IC50,second compound 0.316 µM,> 10 µM
same,IC50,second compound 1 µM,> 10 µM
same,IC50,second compound 3.16 µM,> 10 µM
same,IC50,second compound 10 µM,> 10 µM
same,"viability, T/C",[1],103%
same,"viability, T/C",[2],96.2%
same,"viability, T/C",[3],127%
same,"viability, T/C",[4],141%
same,"viability, T/C",[5],122%
same,"viability, T/C",[6],149%
same,"viability, T/C",[7],112%
same,"viability, T/C",[8],113%
same,"viability, T/C",[9],105%
same,"viability, T/C",[10],141%
same,"viability, T/C",[11],163%
same,"viability, T/C",[12],137%
same,"viability, T/C",[13],102%
same,"viability, T/C",[14],105%
same,"viability, T/C",[15],91%
same,"viability, T/C",[16],144%
same,"viability, T/C",[17],129%
same,"viability, T/C",[18],152%
same,"viability, T/C",[19],106%
same,"viability, T/C",[20],94.2%
same,"viability, T/C",[21],96.7%
same,"viability, T/C",[22],136%
same,"viability, T/C",[23],123%
same,"viability, T/C",[24],133%
same,"viability, T/C",[25],95.3%
same,"viability, T/C",[26],109%
same,"viability, T/C",[27],130%
same,"viability, T/C",[28],126%
same,"viability, T/C",[29],118%
same,"viability, T/C",[30],120%
same,"viability, T/C",[31],106%
same,"viability, T/C",[32],93.9%
same,"viability, T/C",[33],106%
same,"viability, T/C",[34],115%
same,"viability, T/C",[35],127%
same,"viability, T/C",[36],139%
COc1cc2cc(C(=O)CCC(=O)O)sc2cc1OC + Nc1ccc(C#CCN(C(=O)Cc2ncc(C(F)(F)F)cc2C(F)(F)F)c2ccc(F)cc2)nn1,IC50,second compound 0.0316 µM,> 10 µM
same,IC50,second compound 0.1 µM,> 10 µM
same,IC50,second compound 0.316 µM,> 10 µM
same,IC50,second compound 1 µM,> 10 µM
same,IC50,second compound 3.16 µM,> 10 µM
same,IC50,second compound 10 µM,> 10 µM
same,"viability, T/C",[1],119%
same,"viability, T/C",[2],81%
same,"viability, T/C",[3],82.3%
same,"viability, T/C",[4],89.5%
same,"viability, T/C",[5],94.8%
same,"viability, T/C",[6],99.7%
same,"viability, T/C",[7],101%
same,"viability, T/C",[8],87.7%
same,"viability, T/C",[9],84.3%
same,"viability, T/C",[10],127%
same,"viability, T/C",[11],82.2%
same,"viability, T/C",[12],80.6%
same,"viability, T/C",[13],109%
same,"viability, T/C",[14],112%
same,"viability, T/C",[15],104%
same,"viability, T/C",[16],79.8%
same,"viability, T/C",[17],104%
same,"viability, T/C",[18],79.1%
same,"viability, T/C",[19],86.4%
same,"viability, T/C",[20],106%
same,"viability, T/C",[21],102%
same,"viability, T/C",[22],83%
same,"viability, T/C",[23],117%
same,"viability, T/C",[24],90.9%
same,"viability, T/C",[25],105%
same,"viability, T/C",[26],106%
same,"viability, T/C",[27],98.9%
same,"viability, T/C",[28],81.8%
same,"viability, T/C",[29],85.7%
same,"viability, T/C",[30],104%
same,"viability, T/C",[31],82.5%
same,"viability, T/C",[32],83.7%
same,"viability, T/C",[33],86.4%
same,"viability, T/C",[34],102%
same,"viability, T/C",[35],87.5%
same,"viability, T/C",[36],88%
O=C(Nc1ccc(O)c(NS(=O)(=O)c2ccc(F)cc2)c1)c1ccc(-c2ccccc2)cc1 + Nc1ccc(C#CCN(C(=O)Cc2ncc(C(F)(F)F)cc2C(F)(F)F)c2ccc(F)cc2)nn1,IC50,second compound 0.0316 µM,> 10 µM
same,IC50,second compound 0.1 µM,> 10 µM
same,IC50,second compound 0.316 µM,> 10 µM
same,IC50,second compound 1 µM,> 10 µM
same,IC50,second compound 3.16 µM,> 10 µM
same,IC50,second compound 10 µM,> 10 µM
same,"viability, T/C",[1],118%
same,"viability, T/C",[2],105%
same,"viability, T/C",[3],96.8%
same,"viability, T/C",[4],114%
same,"viability, T/C",[5],135%
same,"viability, T/C",[6],87.8%
same,"viability, T/C",[7],98.3%
same,"viability, T/C",[8],123%
same,"viability, T/C",[9],86.3%
same,"viability, T/C",[10],118%
same,"viability, T/C",[11],131%
same,"viability, T/C",[12],94.7%
same,"viability, T/C",[13],103%
same,"viability, T/C",[14],113%
same,"viability, T/C",[15],123%
same,"viability, T/C",[16],114%
same,"viability, T/C",[17],130%
same,"viability, T/C",[18],106%
same,"viability, T/C",[19],101%
same,"viability, T/C",[20],109%
same,"viability, T/C",[21],83.5%
same,"viability, T/C",[22],109%
same,"viability, T/C",[23],131%
same,"viability, T/C",[24],91.9%
same,"viability, T/C",[25],94.4%
same,"viability, T/C",[26],98%
same,"viability, T/C",[27],91%
same,"viability, T/C",[28],99.7%
same,"viability, T/C",[29],111%
same,"viability, T/C",[30],106%
same,"viability, T/C",[31],87.9%
same,"viability, T/C",[32],82.4%
same,"viability, T/C",[33],102%
same,"viability, T/C",[34],105%
same,"viability, T/C",[35],94.3%
same,"viability, T/C",[36],87.9%

# Source: PubChem BioAssay AID1963853 (Molecular Pharmacology Branch, DTP, NCI, 2024)
